Measured values taken from ChEMBL document CHEMBL1122770, “Quantitative structure-activity relationship of insect juvenile hormone mimetic compounds” (J Med Chem, 1984).

Columns and labels:
[1] = Partition coefficient (logP); type: physicochemical; details: octanol/water
Tenebrio molitor [2] = assay: Juvenile hormone mimetic activity in Tenebrio molitor (yellow mealworm); type: functional; parameters: unit not given here
Tenebrio molitor [3] = assay: Tested for juvenile hormone mimetic activity in Tenebrio molitor (yellow mealworm) excluding from the analysis for activity against […]); type: functional
Tenebrio molitor [4] = assay: Tested for juvenile hormone mimetic activity in Tenebrio molitor (yellow mealworm) excluding from the analysis for activity against Tenebrio molitor; type: functional; parameters: unit not given here
Tenebrio molitor [5] = assay: Tested for juvenile hormone mimetic activity in Tenebrio molitor (yellow mealworm) excluding from the analysis for activity against Anopheles aegypti; type: functional
Tenebrio molitor [6] = assay: Tested for juvenile hormone mimetic activity in Tenebrio molitor (yellow mealworm) excluding from the analysis for activity against Aedes aegypti, Tenebrio molitor

logP ([1]; read-out: logP)	SMILES	pI50 (Tenebrio molitor [2])	also measured
7.15	CCOC(=O)/C=C(C)/C=C/CC(C)CCCC(C)(C)C (stereo unspecified)	2.5	–
5.89	CCSC(=O)/C=C(C)/C=C/CC(C)CCCC(C)(C)O (stereo unspecified)	3.43	–
4.65	CCOC(=O)/C=C(C)/C=C/CC(C)CCCC(C)(C)O (stereo unspecified)	–	pI50 (Tenebrio molitor [3]): ~0.54 uM pupa-1
5.57	CCOC(=O)/C=C(C)/C=C/CC(C)CCCC(C)(C)OC(C)=O (stereo unspecified)	2.28	–
7.28	CCCOC(=O)/C=C(C)/C=C/CC(C)CCCC(C)C (stereo unspecified)	2.71	–
5.07	C#CCSC(=O)/C=C(C)/C=C/CC(C)CCCC(C)C (stereo unspecified)	3.47	–
6.06	CCNC(=O)OC(C)(C)CCCC(C)C/C=C/C(C)=C/C(=O)OC(C)C (stereo unspecified)	1.79	–
6.81	CCCC(=O)/C=C(C)/C=C/CC(C)CCCC(C)C (stereo unspecified)	4.7	–
5.65	CCNC(=O)OC(C)(C)CCCC(C)C/C=C/C(C)=C/C(=O)OCC (stereo unspecified)	–	pI50 (Tenebrio molitor [4]): <0.55
4.69	CCNC(=O)/C=C(C)/C=C/CC(C)CCC=C(C)C (stereo unspecified)	4.78	–
5.95	COC(CCC(C)C/C=C/C(C)=C/C(=O)OC(C)C)C(C)C (stereo unspecified)	3.82	–
6.36	CCOC(=O)/C=C(C)/C=C/CC(C)CCCC(C)(C)SC (stereo unspecified)	2.24	–
7.19	COC(C)(C)CCCC(C)C/C=C/C(C)=C/C(=O)SC(C)C (stereo unspecified)	5.04	–
5.9	C#CCSC(=O)/C=C(C)/C=C/CC(C)CCCC(C)(C)OC (stereo unspecified)	2.15	–
6.07	C/C=C/COC(=O)/C=C(C)/C=C/CC(C)CCCC(C)(C)OC (stereo unspecified)	2.25	–
4.3	CCOC(=O)/C=C(C)/C=C/CC(C)CCC(=O)C(C)C (stereo unspecified)	–	pI50 (Tenebrio molitor [4]): <0.45
5.24	CCNC(=O)/C=C(C)/C=C/CC(C)CCCC(C)C (stereo unspecified)	4.76	–
7.81	CCOC(=O)/C=C(C)/C=C/CC(C)CCCC(C)CC (stereo unspecified)	3.47	–
7.44	CSC(=O)/C=C(C)/C=C/CC(C)CCCC(C)C (stereo unspecified)	3.25	–
4.18	CCC(=O)/C=C(C)/C=C/CC(C)CCCC(C)(C)O (stereo unspecified)	–	pI50 (Tenebrio molitor [4]): 6.04
6.49	CCC(C)OC(=O)/C=C(C)/C=C/CC(C)CCCC(C)(C)OC (stereo unspecified)	4.67	–
7.69	CC(/C=C/CC(C)CCCC(C)C)=C\C(=O)OCC(C)C (stereo unspecified)	3.8	–

logP ([1]; read-out: logP)	SMILES	pI50 (Tenebrio molitor [2])	also measured
6.44	CCOC(=O)/C=C(C)/C=C/CC(C)CCCC(C)(C)Cl (stereo unspecified)	3.5	–
6.19	C=C(C)CCCC(C)C/C=C/C(C)=C/C(=O)OCC (stereo unspecified)	2.49	–
4.66	C#CCOC(=O)/C=C(C)/C=C/CC(C)CCCC(C)(C)OC (stereo unspecified)	1.34	–
7.87	CC(/C=C/CC(C)CCCC(C)C)=C\C(=O)OCc1ccccc1 (stereo unspecified)	–	pI50 (Tenebrio molitor [4]): <0.52
4.76	CCOC(=O)/C=C(C)/C=C/CC(C)CCC1OC1(C)C (stereo unspecified)	2.22	–
3.15	CCNC(=O)/C=C(C)/C=C/CC(C)CCCC(C)(C)O (stereo unspecified)	–	pI50 (Tenebrio molitor [5]): 5.22 uM pupa-1
6.85	CC(/C=C/CC(C)CCCC(C)(C)Cl)=C\C(=O)OC(C)C (stereo unspecified)	3.75	–
6.24	COC(C)(C)CCCC(C)C/C=C/C(C)=C/C(=O)SC (stereo unspecified)	3.47	–
3.74	COC(C)(C)CCCC(C)C/C=C/C(C)=C/C(=O)N(C)C (stereo unspecified)	3.8	–
8.39	CC(/C=C/CC(C)CCCC(C)C)=C\C(=O)SC(C)C (stereo unspecified)	4.22	–
5.06	CC(/C=C/CC(C)CCCC(C)(C)O)=C\C(=O)OC(C)C (stereo unspecified)	4.33	–
5.2	C#CCCOC(=O)/C=C(C)/C=C/CC(C)CCCC(C)(C)OC (stereo unspecified)	–	pI50 (Tenebrio molitor [4]): <1.11
7.98	CCSC(=O)/C=C(C)/C=C/CC(C)CCCC(C)C (stereo unspecified)	4.05	–
6.44	COC(C)(C)CCCC(C)C/C=C/C(C)=C/C(=O)OC1CCC1 (stereo unspecified)	2.79	–
4.82	CCN(CC)C(=O)/C=C(C)/C=C/CC(C)CCCC(C)(C)OC (stereo unspecified)	5.51	–
–	CC(/C=C/CC(C)CCCC(C)C)=C\C(=O)C1N=N1 (stereo unspecified)	–	pI50 (Tenebrio molitor [6]): 5.15 uM pupa-1
7.22	CC(/C=C/CC(C)CCCC(C)C)=C\C(=O)CC(C)C (stereo unspecified)	3.14	–
5.65	CC(/C=C/CC(C)CCCC(C)C)=C\C(=O)NC(C)C (stereo unspecified)	4.33	–
6.9	CCOC(=O)/C=C(C)/C=C/CC(C)CCC(SCC)C(C)C (stereo unspecified)	–	pI50 (Tenebrio molitor [4]): 1.51
6.08	CCCOC(=O)/C=C(C)/C=C/CC(C)CCCC(C)(C)OC (stereo unspecified)	1.65	–
5.23	C=CCNC(=O)/C=C(C)/C=C/CC(C)CCCC(C)C (stereo unspecified)	4.33	–
6.6	C=C(C)CCCC(C)C/C=C/C(C)=C/C(=O)OC(C)C (stereo unspecified)	4.1	–

logP ([1]; read-out: logP)	SMILES	pI50 (Tenebrio molitor [2])	also measured
5.98	CC(=O)OC(C)(C)CCCC(C)C/C=C/C(C)=C/C(=O)OC(C)C (stereo unspecified)	3.81	–
5.95	CC(/C=C/CC(C)CCCC(C)C)=C\C(=O)O (stereo unspecified)	–	pI50 (Tenebrio molitor [4]): <0.45
4.45	COC(C)(C)CCCC(C)C/C=C/C(C)=C/C(=O)NC(C)C (stereo unspecified)	4.21	–
6.02	COC(C)(C)CCCC(C)C/C=C/C(C)=C/C(=O)CC(C)C (stereo unspecified)	3.49	–
5.47	CCN(CC)C(=O)/C=C(C)/C=C/CC(C)CCC=C(C)C (stereo unspecified)	1.7	–
6.02	CCN(CC)C(=O)/C=C(C)/C=C/CC(C)CCCC(C)C (stereo unspecified)	4.63	–
3.86	COC(C)(C)C(O)CCC(C)C/C=C/C(C)=C/C(=O)OC(C)C (stereo unspecified)	2.61	–
4.75	COC(CCC(C)C/C=C/C(C)=C/C(=O)OC(C)C)C(C)(C)OC (stereo unspecified)	3.88	–
7.26	CC(/C=C/CC(C)CCCC(C)C)=C\C(=O)c1ccccc1 (stereo unspecified)	3.52	–
7.56	CC(/C=C/CC(C)CCCC(C)C)=C\C(=O)OC(C)(C)C (stereo unspecified)	–	pI50 (Tenebrio molitor [6]): 1.01 uM pupa-1
4.65	CCOC(=O)/C=C(C)/C=C/CC(C)CCC(O)C(C)C (stereo unspecified)	–	pI50 (Tenebrio molitor [4]): <0.45
4.04	CCNC(=O)/C=C(C)/C=C/CC(C)CCCC(C)(C)OC (stereo unspecified)	–	pI50 (Tenebrio molitor [4]): 5.95
5.54	CCOC(=O)/C=C(C)/C=C/CC(C)CCCC(C)(C)OC (stereo unspecified)	1.92	–
6.08	CCOC(=O)/C=C(C)/C=C/CC(C)CCCC(C)(C)OCC (stereo unspecified)	2.77	–
7.01	COC(C)(C)CCCC(C)C/C=C/C(C)=C/C(=O)OC1CCCC1 (stereo unspecified)	4.32	–
5.61	CCCC(=O)/C=C(C)/C=C/CC(C)CCCC(C)(C)OC (stereo unspecified)	5.73	–
–	COC(C)(C)CCCC(C)C/C=C/C(C)=C/C(=O)C1N=N1 (stereo unspecified)	–	pI50 (Tenebrio molitor [6]): 6.12 uM pupa-1
7.15	CC(/C=C/CC(C)CCCC(C)C)=C\C(=O)OC(C)C (stereo unspecified)	4.03	–
6.27	CCC(=O)/C=C(C)/C=C/CC(C)CCCC(C)C (stereo in doubt; 83)	4.89	–
–	CCC(=O)/C=C(C)/C=C/CC(C)CCCC(C)C (stereo in doubt; 101)	4.1	logP [1]: 6.68
